From ChEMBL document CHEMBL1146168, “Binding of f-PIP, a pyrrole- and imidazole-containing triamide, to the inverted CCAAT box-2 of the topoisomerase IIalpha promoter and modulation of gene expression in cells” (Bioorg Med Chem Lett, 2006)
Activity calls are given as the source filed them. The calls are words filed in the database; no cut-off is given here.

Legend:
Homo sapiens [1] = species on record: Homo sapiens; assay: Binding affinity to DNA sequence ICB1 assessed as protection of ICB1 from DNAase I cleavage at 100 uM
NIH3T3 [2] = assay: Inhibition of NF-Y binding to DNA sequence ICB2 in NIH3T3 cell extracts at 50 uM by EMSA; assay type: cell-free; details: Homo sapiens
Homo sapiens [3] = species on record: Homo sapiens; assay: Binding affinity to DNA sequence ICB2 by SPR
NIH3T3 [4] = assay: Increased topoisomerase 2 alpha protein expression in NIH3T3 cells at 10 uM after 4 hrs; assay type: functional, cell-based; details: Mus musculus
Homo sapiens [5] = species on record: Homo sapiens; assay: Binding affinity to DNA sequence ICB4 assessed as protection of ICB4 from DNAase I cleavage at 100 uM
NIH3T3 [6] = assay: Inhibition of NF-Y binding to DNA sequence ICB1 in NIH3T3 cell extracts at 50uM by EMSA; assay type: cell-free; details: Homo sapiens
NIH3T3 [7] = assay: Inhibition of NF-Y binding to DNA sequence ICB2 in NIH3T3 cell extracts at 1 to 5 uM by EMSA; assay type: cell-free; details: Homo sapiens
NIH3T3 [8] = assay: Induction of topoisomerase 2 alpha protein expression in NIH3T3 cells after 24 hrs; assay type: functional, cell-based; details: Mus musculus

Compound	Activity (Homo sapiens [1])	Activity (NIH3T3 [2])	Activity (Homo sapiens [3]) [M⁻¹]	Activity (NIH3T3 [4])	Activity (Homo sapiens [5])	Activity (NIH3T3 [6])	Activity (NIH3T3 [7])	Activity (NIH3T3 [8])
CN(C)CCNC(=O)c1cc(NC(=O)c2nc(NC(=O)c3cc(NC=O)cn3C)cn2C)cn1C	inactive	Active	200000	Active	inactive	inactive		
CN(C)CCNC(=O)c1cc(NC(=O)c2cc(NC(=O)c3cc(NC(=O)CCCNC(=O)c4nc(NC(=O)c5nc(NC(=O)c6cccn6C)cn5C)cn4C)cn3C)cn2C)cn1C							Active	Active
